Measured values as given in ChEMBL document CHEMBL4145517, “Advances on photodynamic therapy of melanoma through novel ring-fused 5,15-diphenylchlorins” (Eur J Med Chem, 2018).
Activity calls are given as the source filed them. The calls are words filed in the database; no cut-off is given here.

test system: A-375; assay: Disruption of mitochondrial membrane potential in human A375 cells at 500 nM preincubated for 24 hrs followed by exposure to light with fluence rate of 7.5 mW/cm2 at 10 J and measured after 24 hrs by JC-1 staining-based assay; format: functional, cell-based; conditions: not given

**Q.** With `COC(=O)c1nn2c(c1C(=O)OC)CC1c3nc(cc4ccc([nH]4)c(-c4ccccc4)c4nc(cc5ccc([nH]5)c3-c3ccccc3)C=C4)C1C2` (stereo not drawn) as the compound, how does the Activity read?
**A.** Active

test system: A-375; assay: Cell cycle arrest in human A375 cells assessed as accumulation at pre-G0 phase up to 500 nM preincubated for 24 hrs followed by exposure to light with fluence rate of 7.5 mW/cm2 at 10 J and measured after 24 hrs by propidium iodide/RNase-staining based flow cytometric analysis; format: functional; conditions: not given

**Q.** For `COC(=O)c1nn2c(c1C(=O)OC)CC1c3nc(cc4ccc([nH]4)c(-c4ccccc4)c4nc(cc5ccc([nH]5)c3-c3ccccc3)C=C4)C1C2` (stereo not drawn), which Activity is on record?
**A.** Active

test system: not listed separately; assay: Dark toxicity against human HFF1 cells at 1 to 10 uM after 24 hrs by MTT assay; format: cell-based; conditions: hff-1, 24 h

**Q.** For `COC(=O)c1nn2c(c1C(=O)OC)CC1c3nc(cc4ccc([nH]4)c(-c4ccccc4)c4nc(cc5ccc([nH]5)c3-c3ccccc3)C=C4)C1C2` (stereo not drawn), which Activity is on record?
**A.** Non-Toxic

test system: A-375; assay: Induction of apoptosis in human A375 cells assessed as increase in necrotic cells at 50 nM preincubated for 24 hrs followed by exposure to light with fluence rate of 7.5 mW/cm2 at 10 J and measured after 24 hrs by Annexin-V/propidium iodide stainin-based FACS analysis; format: functional, cell-based; conditions: not given

**Q.** For `COC(=O)c1nn2c(c1C(=O)OC)CC1c3nc(cc4ccc([nH]4)c(-c4ccccc4)c4nc(cc5ccc([nH]5)c3-c3ccccc3)C=C4)C1C2` (stereo not drawn), which Activity is on record?
**A.** Active

test system: A-375; assay: Photocytotoxicity against human A375 cells preincubated for 24 hrs followed by exposure to light with fluence rate of 7.5 mW/cm2 until 10 J measured after 24 hrs by MTT assay; format: functional, cell-based; conditions: not given

**Q.** With `COC(=O)c1nn2c(c1C(=O)OC)CC1c3nc(cc4ccc([nH]4)c(-c4ccccc4)c4nc(cc5ccc([nH]5)c3-c3ccccc3)C=C4)C1C2` (stereo not drawn) as the compound, how does the IC50 read?
**A.** 0.0145 µM

test system: not listed separately; assay: Drug uptake in human A375 cells preincubated for 24 hrs followed by exposure to light with fluence rate of 7.5 mW/cm2 at 10 J measured after 24 hrs by fluorescence spectroscopic analysis; format: ADME, cell-based; conditions: a-375, 24 h

**Q.** With `COC(=O)c1nn2c(c1C(=O)OC)CC1c3nc(cc4ccc([nH]4)c(-c4ccccc4)c4nc(cc5ccc([nH]5)c3-c3ccccc3)C=C4)C1C2` (stereo not drawn) as the compound, how does the Drug uptake read?
**A.** Dose-dependent effect

test system: A-375; assay: Photocytotoxicity against human A375 cells at 5 to 50 nM preincubated for 24 hrs followed by exposure to light with fluence rate of 7.5 mW/cm2 until 20J and measured after 24 hrs by MTT assay; format: functional, cell-based; conditions: not given

**Q.** With `COC(=O)c1nn2c(c1C(=O)OC)CC1c3nc(cc4ccc([nH]4)c(-c4ccccc4)c4nc(cc5ccc([nH]5)c3-c3ccccc3)C=C4)C1C2` (stereo not drawn) as the compound, how does the Activity read?
**A.** Active

test system: A-375; assay: Increase in expression of reduced glutathione in human A375 cells up to 500 nM preincubated for 24 hrs followed by exposure to light with fluence rate of 7.5 mW/cm2 at 10 J and measured after 24 hrs by mercury orange staining-based fluorescence analysis; format: functional, cell-based; conditions: not given

**Q.** Which Activity does the source give for `COC(=O)c1nn2c(c1C(=O)OC)CC1c3nc(cc4ccc([nH]4)c(-c4ccccc4)c4nc(cc5ccc([nH]5)c3-c3ccccc3)C=C4)C1C2` (stereo not drawn) here?
**A.** inactive

test system: A-375; assay: Photocytotoxicity against human A375 cells assessed as decrease in cell viability by measuring protein content at >= 50 nM preincubated for 24 hrs followed by exposure to light with fluence rate of 7.5 mW/cm2 at 10 J and measured after 24 hrs by sulforhodamine B assay; format: functional, cell-based; conditions: not given

**Q.** For `COC(=O)c1nn2c(c1C(=O)OC)CC1c3nc(cc4ccc([nH]4)c(-c4ccccc4)c4nc(cc5ccc([nH]5)c3-c3ccccc3)C=C4)C1C2` (stereo not drawn), which Activity is on record?
**A.** Active

test system: A-375; assay: Induction of p53 expression in human A375 cells at 50 nM preincubated for 24 hrs followed by exposure to light with fluence rate of 7.5 mW/cm2 at 10 J and measured after 24 hrs by Western blot analysis; format: functional, cell-based; conditions: not given

**Q.** For `COC(=O)c1nn2c(c1C(=O)OC)CC1c3nc(cc4ccc([nH]4)c(-c4ccccc4)c4nc(cc5ccc([nH]5)c3-c3ccccc3)C=C4)C1C2` (stereo not drawn), which Activity is on record?
**A.** Active

test system: not listed separately; assay: Dark toxicity against human A375 cells at 1 to 10 uM after 24 hrs by MTT assay; format: cell-based; conditions: a-375, 24 h

**Q.** For `COC(=O)c1nn2c(c1C(=O)OC)CC1c3nc(cc4ccc([nH]4)c(-c4ccccc4)c4nc(cc5ccc([nH]5)c3-c3ccccc3)C=C4)C1C2` (stereo not drawn), which Activity is on record?
**A.** Non-Toxic

test system: A-375; assay: Disruption of mitochondrial membrane potential in human A375 cells at 50 nM preincubated for 24 hrs followed by exposure to light with fluence rate of 7.5 mW/cm2 at 10 J and measured after 24 hrs by JC-1 staining-based assay; format: functional, cell-based; conditions: not given

**Q.** Which Activity does the source give for `COC(=O)c1nn2c(c1C(=O)OC)CC1c3nc(cc4ccc([nH]4)c(-c4ccccc4)c4nc(cc5ccc([nH]5)c3-c3ccccc3)C=C4)C1C2` (stereo not drawn) here?
**A.** Active

test system: A-375; assay: Photocytotoxicity against human A375 cells at 5 to 500 nM preincubated for 24 hrs followed by exposure to light with fluence rate of 7.5 mW/cm2 until 5 to 10 J and measured after 24 hrs by MTT assay; format: functional, cell-based; conditions: not given

**Q.** For `COC(=O)c1nn2c(c1C(=O)OC)CC1c3nc(cc4ccc([nH]4)c(-c4ccccc4)c4nc(cc5ccc([nH]5)c3-c3ccccc3)C=C4)C1C2` (stereo not drawn), which Activity is on record?
**A.** Active

test system: A-375; assay: Decrease in intracellular superoxide anion generation in human A375 cells at 500 nM preincubated for 24 hrs followed by exposure to light with fluence rate of 7.5 mW/cm2 at 10 J and measured after 24 hrs by dihydroethidium staining-based fluorescence analysis; format: functional, cell-based; conditions: not given

**Q.** Which Activity does the source give for `COC(=O)c1nn2c(c1C(=O)OC)CC1c3nc(cc4ccc([nH]4)c(-c4ccccc4)c4nc(cc5ccc([nH]5)c3-c3ccccc3)C=C4)C1C2` (stereo not drawn) here?
**A.** Active

test system: A-375; assay: Decrease in intracellular peroxides generation in human A375 cells at 500 nM preincubated for 24 hrs followed by exposure to light with fluence rate of 7.5 mW/cm2 at 10 J and measured after 24 hrs by DCFH2-DA staining-based fluorescence analysis; format: functional, cell-based; conditions: not given

**Q.** With `COC(=O)c1nn2c(c1C(=O)OC)CC1c3nc(cc4ccc([nH]4)c(-c4ccccc4)c4nc(cc5ccc([nH]5)c3-c3ccccc3)C=C4)C1C2` (stereo not drawn) as the compound, how does the Activity read?
**A.** Active

test system: A-375; assay: Induction of apoptosis in human A375 cells assessed as decrease in living cells at 500 nM preincubated for 24 hrs followed by exposure to light with fluence rate of 7.5 mW/cm2 at 10 J and measured after 24 hrs by Annexin-V/propidium iodide stainin-based FACS analysis; format: functional; set-up: scale not given: the % may be the effect or the level left; conditions: not given

**Q.** Which Activity does the source give for `COC(=O)c1nn2c(c1C(=O)OC)CC1c3nc(cc4ccc([nH]4)c(-c4ccccc4)c4nc(cc5ccc([nH]5)c3-c3ccccc3)C=C4)C1C2` (stereo not drawn) here?
**A.** >50%

test system: A-375; assay: Phototoxicity against human A375 cells assessed as reduction in cell viability up to 500 nM preincubated for 24 hrs followed by exposure to light with fluence rate of 7.5 mW/cm2 at 10 J and measured after 24 hrs in presence of hydroxyl radical scavenger D-mannitol by MTT assay; format: functional, cell-based; conditions: not given

**Q.** For `COC(=O)c1nn2c(c1C(=O)OC)CC1c3nc(cc4ccc([nH]4)c(-c4ccccc4)c4nc(cc5ccc([nH]5)c3-c3ccccc3)C=C4)C1C2` (stereo not drawn), which Activity is on record?
**A.** Active

test system: A-375; assay: Phototoxicity against human A375 cells assessed as reduction in cell viability up to 500 nM preincubated for 24 hrs followed by exposure to light with fluence rate of 7.5 mW/cm2 at 10 J and measured after 24 hrs in presence of singlet oxygen scavenger sodium azide by MTT assay; format: functional, cell-based; conditions: not given

**Q.** With `COC(=O)c1nn2c(c1C(=O)OC)CC1c3nc(cc4ccc([nH]4)c(-c4ccccc4)c4nc(cc5ccc([nH]5)c3-c3ccccc3)C=C4)C1C2` (stereo not drawn) as the compound, how does the Activity read?
**A.** Active
